# Results published in patent US4107424A, “1-N-[(S)-α-hydroxy-ω-aminoacyl] derivatives of 3',4'-dideoxykanamycin B and 3'-deoxykanamycin B antibiotics” (Zaidan Hojin Biseibutsu Kagaku Kenkyu Kai, priority 1972, dated 1978).
# Where two headings read alike, the source gives them in different places.
# Assays:
# [1] = tested on: kanamycin-resistant strains; conditions: strains producing 3'-hydroxyl phosphorylating enzyme; cited from earlier work
# [2] = tested on: Escherichia coli K-12 ML 1629; test: Minimal inhibitory concentration, agar dilution streak method; assay type: cell-based; conditions: K12ML1629, nutrient agar, 37° C, 18 hours
# Experimental: (§1) *Agar Agar dilution streak method (nutrient agar, 37° C, 18 hours)
# (§2) *Agar dilution streak method (nutrient agar, 37° C, 18 hours).
# [3] = tested on: Escherichia coli K-12 LA 290 R 64; test: as above; assay type: cell-based; conditions: nutrient agar, 37° C, 18 hours, read-out: Minimal inhibitory concentration
# Experimental: as §1, §2
# [4] = tested on: Escherichia coli K-12 W 677; test: as above; assay type: cell-based; conditions: K12W677, nutrient agar, 37° C, 18 hours, read-out: Minimal inhibitory concentration
# Experimental: as §1, §2
# [5] = tested on: Pseudomonas aeruginosa No.12; test: as above; assay type: cell-based; conditions: nutrient agar, 37° C, 18 hours, read-out: Minimal inhibitory concentration
# Experimental: as §1, §2
# [6] = tested on: Pseudomonas aeruginosa GN 315; test: as above; assay type: cell-based; conditions: GN315, nutrient agar, 37° C, 18 hours
# Experimental: as §1, §2
# [7] = tested on: Klebsiella pneumoniae type 22 #3038; test: as above; assay type: cell-based; conditions: Klebsiella pneumoniae; nutrient agar, 37° C, 18 hours
# Experimental: as §1, §2
# [8] = tested on: Escherichia coli K-12 JR 66/W 677; test: as above; assay type: cell-based; conditions: Escherichia coli, 18 h
# Experimental: as §1, §2
# [9] = tested on: Escherichia coli K-12 ML 1410; test: as above; assay type: cell-based; conditions: K12ML1410, nutrient agar, 37° C, 18 hours, read-out: Minimal inhibitory concentration
# Experimental: as §1, §2
# [10] = tested on: Pseudomonas aeruginosa A 3; test: as above; assay type: cell-based; conditions: A3, nutrient agar, 37° C, 18 hours, read-out: Minimal inhibitory concentration
# Experimental: as §1, §2
# [11] = tested on: Staphylococcus aureus FDA 209P; test: as above; assay type: cell-based; conditions: FDA209P, nutrient agar, 37° C, 18 hours, read-out: Minimal inhibitory concentration
# Experimental: as §1, §2
# [12] = tested on: Pseudomonas aeruginosa TI-13; test: as above; assay type: cell-based; conditions: TI13, nutrient agar, 37° C, 18 hours, read-out: Minimal inhibitory concentration
# Experimental: as §1, §2
# [13] = tested on: Escherichia coli K-12 LA 290 R 56; test: as above; assay type: cell-based; conditions: 18 h, read-out: Minimal inhibitory concentration
# Experimental: as §1, §2
# [14] = tested on: Escherichia coli K-12 ML 1410 R 81; test: as above; assay type: cell-based; conditions: 18 h, read-out: Minimal inhibitory concentration
# Experimental: as §1, §2
# [15] = tested on: Escherichia coli K-12 LA 290 R 55; test: as above; assay type: cell-based; conditions: 18 h
# Experimental: as §1, §2
# [16] = tested on: Escherichia coli K-12 ML 1630; test: as above; assay type: cell-based; conditions: K12ML1630, nutrient agar, 37° C, 18 hours, read-out: Minimal inhibitory concentration
# Experimental: as §1, §2
# Escherichia coli K-12 = test: as above; assay type: cell-based; conditions: K12, nutrient agar, 37° C, 18 hours, read-out: Minimal inhibitory concentration
# Experimental: as §1, §2
# [17] = tested on: Mycobacterium smegmatis ATCC 607; test: as above; assay type: cell-based; conditions: Mycolicibacterium smegmatis, ATCC607; nutrient agar, 37° C, 48 hours; read-out: Minimal inhibitory concentration
# Escherichia coli NIHJ = test: as above; assay type: cell-based; conditions: nutrient agar, 37° C, 18 hours
# Experimental: (§3) [α]D^22 + 38°, (c 0.85, water).
# as §1, §2
# [18] = tested on: Klebsiella pneumoniae PCI 602; test: as above; assay type: cell-based; conditions: PCI602, nutrient agar, 37° C, 18 hours
# Experimental: as §3, §1, §2
# Proteus rettgeri GN 466 = test: as above; assay type: cell-based; conditions: Providencia rettgeri, GN466; nutrient agar, 37° C, 18 hours
# Experimental: as §3, §1, §2
# Proteus rettgeri GN 311 = test: as above; assay type: cell-based; conditions: Providencia rettgeri, GN311; nutrient agar, 37° C, 18 hours
# Experimental: as §3, §1, §2
# [19] = tested on: Escherichia coli K-12 R-5; test: as above; assay type: cell-based; conditions: K12R5, nutrient agar, 37° C, 18 hours
# Experimental: as §3, §1, §2
# [20] = tested on: Bacillus subtilis NRRL B-558; test: as above; assay type: cell-based; conditions: NRRLB558, nutrient agar, 37° C, 18 hours
# Experimental: as §3, §1, §2
# Salmonella typhosa T-63 = test: as above; assay type: cell-based; conditions: Salmonella enterica, nutrient agar, 37° C, 18 hours
# Experimental: as §3, §1, §2
# [21] = tested on: Escherichia coli J 5 R 11-2; test: as above; assay type: cell-based; conditions: J5R112, 18 h, read-out: Minimal inhibitory concentration
# Experimental: as §3, §1, §2
# Sarcina lutea PCI 1001 = test: as above; assay type: cell-based; conditions: Micrococcus luteus, PCI1001; nutrient agar, 37° C, 18 hours; read-out: Minimal inhibitory concentration
# Experimental: as §3, §1, §2
# [22] = tested on: Escherichia coli K-12 C 600 R 135; test: as above; assay type: cell-based; conditions: 18 h, read-out: Minimal inhibitory concentration
# Experimental: as §3, §1, §2
# [23] = tested on: Pseudomonas aeruginosa 99; test: as above; assay type: cell-based; conditions: nutrient agar, 37° C, 18 hours, read-out: Minimal inhibitory concentration
# Experimental: as §3, §1, §2
# [24] = read-out: Minimal inhibitory concentration
# [25] = drug-resistant strain, read-out: minimum inhibitory concentrations
# [26] = read-out: minimum inhibitory concentrations
smiles,measurement,setting,value
"NC[C@@H]1CC[C@@H](N)[C@@H](O[C@H]2[C@H](O)[C@@H](O)[C@H](N)C[C@@H]2N)O1 [3',4'-dideoxyneamine]",activity against kanamycin-resistant strains,[1],actually effective
same,MIC,[2]; [24],12.5 µg/mL
same,MIC,[3],12.5 µg/mL
same,MIC,[4],6.25 µg/mL
same,MIC,[5],25 µg/mL
same,MIC,[6]; [24],> 100 µg/mL
same,MIC,[7],25 µg/mL
same,MIC,[8]; [24],25 µg/mL
same,MIC,[9],6.25 µg/mL
same,MIC,[10],25 µg/mL
same,MIC,[11],6.25 µg/mL
same,MIC,[12],25 µg/mL
same,MIC,[13],6.25 µg/mL
same,MIC,[14],25 µg/mL
same,MIC,[15]; [24],6.25 µg/mL
same,MIC,[16],12.5 µg/mL
same,MIC,Escherichia coli K-12,6.25 µg/mL
same,MIC,[17],25 µg/mL
same,MIC,Escherichia coli NIHJ,12.5 µg/mL
same,MIC,[18],25 µg/mL
same,MIC,Proteus rettgeri GN 466,25 µg/mL
same,MIC,Proteus rettgeri GN 311,50 µg/mL
same,MIC,[19],50 µg/mL
same,MIC,[20],0.39 µg/mL
same,MIC,Salmonella typhosa T-63,3.12 µg/mL
same,MIC,[21],6.25 µg/mL
same,MIC,Sarcina lutea PCI 1001,50 µg/mL
same,MIC,[22],12.5 µg/mL
same,MIC,[23],50 µg/mL
NCC1OC(OC2C(N)CC(N)C(OC3OC(CO)C(O)C(N)C3O)C2O)C(O)CC1O (centres unmarked) [3'-deoxykanamycin],activity against kanamycin-resistant strains,[1],actually effective
NC[C@H]1O[C@H](O[C@H]2[C@H](O)[C@@H](O)[C@H](N)C[C@@H]2N)[C@H](N)C[C@@H]1O [3'-deoxyneamine],activity against kanamycin-resistant strains,[1],actually effective
same,MIC,[2]; [25],6.25 µg/mL
same,MIC,[6]; [25],> 100 µg/mL
same,MIC,[8]; [26],> 100 µg/mL
same,MIC,[15]; [26],100 µg/mL
